Experimental data taken from ChEMBL document CHEMBL4507260 (2021).

What was measured:
Settings in all cases: Compound concentration 1000.0 nM
[1] = target: Inhibitor of nuclear factor kappa-B kinase subunit beta (Homo sapiens) (UniProt O14920)
[2] = target: Serine/threonine-protein kinase 36 (Homo sapiens) (UniProt Q9NRP7)
[3] = system: Receptor-type tyrosine-protein kinase FLT3 (Homo sapiens), P36888 [K663Q]
[4] = target: Tyrosine-protein kinase Mer (Homo sapiens) (UniProt Q12866)
[5] = system: Receptor-type tyrosine-protein kinase FLT3 (Homo sapiens), P36888 [N841I]
[6] = system: Phosphatidylinositol 4,5-bisphosphate 3-kinase catalytic subunit alpha isoform (Homo sapiens), P42336 [E545K]
[7] = target: Protein-tyrosine kinase 2-beta (Homo sapiens) (UniProt Q14289)
[8] = target: Serine/threonine-protein kinase Nek5 (Homo sapiens) (UniProt Q6P3R8)
[9] = target: RAF proto-oncogene serine/threonine-protein kinase (Homo sapiens) (UniProt P04049)
[10] = target: 1-phosphatidylinositol 3-phosphate 5-kinase (Homo sapiens) (UniProt Q9Y2I7)
[11] = target: Casein kinase I isoform gamma-3 (Homo sapiens) (UniProt Q9Y6M4)
[12] = target: Tyrosine-protein kinase TXK (Homo sapiens) (UniProt P42681)
[13] = target: Activin receptor type-1B (Homo sapiens) (UniProt P36896)
[14] = system: Proto-oncogene tyrosine-protein kinase receptor Ret (Homo sapiens), P07949 [M918T]
[15] = target: Death-associated protein kinase 2 (Homo sapiens) (UniProt Q9UIK4)
[16] = target: Cyclin-dependent kinase 4 (Homo sapiens) (UniProt P11802)
[17] = target: Tyrosine-protein kinase JAK1 (Homo sapiens) (UniProt P23458)
[18] = target: Cyclin-dependent kinase 15 (Homo sapiens) (UniProt Q96Q40)
[19] = system: Receptor-type tyrosine-protein kinase FLT3 (Homo sapiens), P36888 [UNDEFINED MUTATION]
[20] = target: Cyclin-dependent kinase 2 homolog (Plasmodium falciparum (isolate 3D7)) (UniProt P61075)
[21] = target: Serine/threonine-protein kinase TAO2 (Homo sapiens) (UniProt Q9UL54)
[22] = target: Myosin light chain kinase family member 4 (Homo sapiens) (UniProt Q86YV6)
[23] = target: Protein kinase C iota type (Homo sapiens) (UniProt P41743)
[24] = target: Serine/threonine-protein kinase DCLK2 (Homo sapiens) (UniProt Q8N568)
[25] = system: Tyrosine-protein kinase ABL1 (Homo sapiens), P00519 [M351T]
[26] = target: Tyrosine-protein kinase ZAP-70 (Homo sapiens) (UniProt P43403)
[27] = system: Mast/stem cell growth factor receptor Kit (Homo sapiens), P10721 [V559D,V654A]
[28] = target: Serine/threonine-protein kinase D1 (Homo sapiens) (UniProt Q15139)
[29] = target: Mitogen-activated protein kinase 13 (Homo sapiens) (UniProt O15264)
[30] = target: Tyrosine-protein kinase Fer (Homo sapiens) (UniProt P16591)
[31] = target: cAMP-dependent protein kinase catalytic subunit PRKX (Homo sapiens) (UniProt P51817)
[32] = system: Phosphatidylinositol 4,5-bisphosphate 3-kinase catalytic subunit alpha isoform (Homo sapiens), P42336 [C420R]
[33] = target: Phosphatidylinositol 4-phosphate 3-kinase C2 domain-containing subunit beta (Homo sapiens) (UniProt O00750)
[34] = target: Transient receptor potential cation channel subfamily M member 6 (Homo sapiens) (UniProt Q9BX84)
[35] = target: Serine/threonine-protein kinase PAK 2 (Homo sapiens) (UniProt Q13177)
[36] = target: Activated CDC42 kinase 1 (Homo sapiens) (UniProt Q07912)
[37] = target: Cyclin-dependent kinase 11A (Homo sapiens) (UniProt Q9UQ88)
[38] = target: STE20/SPS1-related proline-alanine-rich protein kinase (Homo sapiens) (UniProt Q9UEW8)
[39] = target: Hepatocyte growth factor receptor (Homo sapiens) (UniProt P08581)
[40] = target: Rhodopsin kinase GRK7 (Homo sapiens) (UniProt Q8WTQ7)
[41] = target: Serine/threonine-protein kinase PLK1 (Homo sapiens) (UniProt P53350)
[42] = target: Serine/threonine-protein kinase 17A (Homo sapiens) (UniProt Q9UEE5)
[43] = target: Myosin light chain kinase 2, skeletal/cardiac muscle (Homo sapiens) (UniProt Q9H1R3)
[44] = target: Serine/threonine-protein kinase Sgk1 (Homo sapiens) (UniProt O00141)

Measured: residual activity

Chain of Serine/threonine-protein kinase Sgk1 (Homo sapiens) (O00141 whole entry): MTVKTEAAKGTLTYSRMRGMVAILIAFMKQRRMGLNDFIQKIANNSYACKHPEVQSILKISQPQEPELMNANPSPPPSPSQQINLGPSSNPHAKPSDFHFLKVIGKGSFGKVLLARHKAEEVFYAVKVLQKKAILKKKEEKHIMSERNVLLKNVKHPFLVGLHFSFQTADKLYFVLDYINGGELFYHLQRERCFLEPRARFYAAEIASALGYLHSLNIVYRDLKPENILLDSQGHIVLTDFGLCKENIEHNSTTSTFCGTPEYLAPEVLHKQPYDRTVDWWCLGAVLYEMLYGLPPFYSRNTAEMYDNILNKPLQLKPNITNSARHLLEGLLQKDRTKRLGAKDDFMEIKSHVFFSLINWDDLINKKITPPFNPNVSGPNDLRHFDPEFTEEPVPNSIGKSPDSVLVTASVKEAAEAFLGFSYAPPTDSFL
Chain of Proto-oncogene tyrosine-protein kinase receptor Ret (Homo sapiens), P07949 [M918T] (P07949 whole entry M918T): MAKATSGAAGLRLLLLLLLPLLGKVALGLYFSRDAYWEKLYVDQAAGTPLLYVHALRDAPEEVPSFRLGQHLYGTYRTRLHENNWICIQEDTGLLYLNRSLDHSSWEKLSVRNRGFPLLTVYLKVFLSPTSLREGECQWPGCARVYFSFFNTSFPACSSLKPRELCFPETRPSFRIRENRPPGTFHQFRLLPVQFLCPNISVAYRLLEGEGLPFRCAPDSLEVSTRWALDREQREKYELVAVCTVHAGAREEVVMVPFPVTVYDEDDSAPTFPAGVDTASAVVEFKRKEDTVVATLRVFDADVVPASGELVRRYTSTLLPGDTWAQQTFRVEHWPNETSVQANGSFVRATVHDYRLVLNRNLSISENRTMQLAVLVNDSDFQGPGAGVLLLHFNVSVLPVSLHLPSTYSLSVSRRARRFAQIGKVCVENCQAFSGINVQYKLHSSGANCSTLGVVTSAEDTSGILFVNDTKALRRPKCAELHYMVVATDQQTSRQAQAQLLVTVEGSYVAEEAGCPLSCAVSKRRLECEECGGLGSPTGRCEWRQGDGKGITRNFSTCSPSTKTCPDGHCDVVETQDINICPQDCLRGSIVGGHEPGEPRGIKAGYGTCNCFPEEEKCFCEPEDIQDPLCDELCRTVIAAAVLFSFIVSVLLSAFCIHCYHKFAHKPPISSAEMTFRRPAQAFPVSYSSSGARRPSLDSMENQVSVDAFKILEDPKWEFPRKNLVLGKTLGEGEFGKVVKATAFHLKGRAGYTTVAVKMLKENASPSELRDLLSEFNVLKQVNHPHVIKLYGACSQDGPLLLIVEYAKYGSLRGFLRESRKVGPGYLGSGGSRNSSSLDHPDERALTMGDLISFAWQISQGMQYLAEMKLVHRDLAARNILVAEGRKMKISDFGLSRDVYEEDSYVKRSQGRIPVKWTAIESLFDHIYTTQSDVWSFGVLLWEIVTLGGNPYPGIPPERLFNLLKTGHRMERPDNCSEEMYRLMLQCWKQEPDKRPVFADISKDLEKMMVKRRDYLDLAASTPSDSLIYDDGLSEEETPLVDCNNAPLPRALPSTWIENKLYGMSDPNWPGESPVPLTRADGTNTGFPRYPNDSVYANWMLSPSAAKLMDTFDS
Chain of Rhodopsin kinase GRK7 (Homo sapiens) (Q8WTQ7 whole entry): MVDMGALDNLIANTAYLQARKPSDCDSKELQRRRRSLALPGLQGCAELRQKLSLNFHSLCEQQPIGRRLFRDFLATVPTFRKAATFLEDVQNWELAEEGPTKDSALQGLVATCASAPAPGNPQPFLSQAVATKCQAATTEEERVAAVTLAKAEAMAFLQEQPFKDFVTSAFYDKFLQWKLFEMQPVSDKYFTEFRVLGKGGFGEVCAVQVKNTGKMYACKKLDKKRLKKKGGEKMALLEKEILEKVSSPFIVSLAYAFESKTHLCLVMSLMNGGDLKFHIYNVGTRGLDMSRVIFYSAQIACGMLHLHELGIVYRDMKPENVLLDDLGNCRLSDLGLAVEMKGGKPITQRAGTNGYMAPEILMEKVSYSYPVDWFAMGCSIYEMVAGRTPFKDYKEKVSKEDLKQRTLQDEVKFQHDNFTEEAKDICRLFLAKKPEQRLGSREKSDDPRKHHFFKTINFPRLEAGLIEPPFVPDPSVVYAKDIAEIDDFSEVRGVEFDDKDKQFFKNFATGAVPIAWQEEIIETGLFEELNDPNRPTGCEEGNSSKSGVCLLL
Chain of Mast/stem cell growth factor receptor Kit (Homo sapiens), P10721 [V559D,V654A] (P10721 whole entry V559D/V654A): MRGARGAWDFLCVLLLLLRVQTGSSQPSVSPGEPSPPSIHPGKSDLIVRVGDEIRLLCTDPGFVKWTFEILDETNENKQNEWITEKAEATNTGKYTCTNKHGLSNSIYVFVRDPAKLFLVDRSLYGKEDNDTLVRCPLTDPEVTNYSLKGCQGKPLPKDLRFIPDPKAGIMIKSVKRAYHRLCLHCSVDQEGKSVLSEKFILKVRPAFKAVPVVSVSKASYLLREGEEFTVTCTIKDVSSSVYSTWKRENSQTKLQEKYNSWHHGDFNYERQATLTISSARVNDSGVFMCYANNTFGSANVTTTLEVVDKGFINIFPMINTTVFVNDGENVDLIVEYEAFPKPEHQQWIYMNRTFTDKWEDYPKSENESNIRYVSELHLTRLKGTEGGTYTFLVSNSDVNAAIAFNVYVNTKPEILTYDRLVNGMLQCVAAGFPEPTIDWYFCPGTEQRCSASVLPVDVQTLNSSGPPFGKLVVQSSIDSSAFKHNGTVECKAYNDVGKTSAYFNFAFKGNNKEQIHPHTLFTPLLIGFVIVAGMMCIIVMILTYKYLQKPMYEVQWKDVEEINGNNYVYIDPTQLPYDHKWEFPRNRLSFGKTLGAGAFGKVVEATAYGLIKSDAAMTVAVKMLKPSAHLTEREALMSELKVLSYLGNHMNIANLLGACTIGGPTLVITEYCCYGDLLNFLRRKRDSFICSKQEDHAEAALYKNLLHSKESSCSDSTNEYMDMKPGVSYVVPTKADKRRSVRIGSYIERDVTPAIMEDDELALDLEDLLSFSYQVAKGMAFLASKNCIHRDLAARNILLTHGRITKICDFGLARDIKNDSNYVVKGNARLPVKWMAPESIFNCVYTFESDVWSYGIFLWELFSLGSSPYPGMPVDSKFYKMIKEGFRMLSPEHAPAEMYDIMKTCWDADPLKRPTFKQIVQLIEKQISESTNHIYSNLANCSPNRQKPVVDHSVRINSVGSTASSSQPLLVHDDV
Chain of Serine/threonine-protein kinase 17A (Homo sapiens) (Q9UEE5 whole entry): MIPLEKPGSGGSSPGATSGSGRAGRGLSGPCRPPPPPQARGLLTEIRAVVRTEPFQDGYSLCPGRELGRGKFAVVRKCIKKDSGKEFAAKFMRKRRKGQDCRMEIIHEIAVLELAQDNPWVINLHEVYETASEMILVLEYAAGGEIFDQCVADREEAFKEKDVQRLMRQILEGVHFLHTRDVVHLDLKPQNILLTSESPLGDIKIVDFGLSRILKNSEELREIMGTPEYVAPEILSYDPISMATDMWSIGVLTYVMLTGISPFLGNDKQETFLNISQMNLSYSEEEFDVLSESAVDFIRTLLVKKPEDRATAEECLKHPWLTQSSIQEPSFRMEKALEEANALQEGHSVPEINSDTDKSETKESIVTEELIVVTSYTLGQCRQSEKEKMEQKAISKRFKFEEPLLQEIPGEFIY
Chain of Phosphatidylinositol 4,5-bisphosphate 3-kinase catalytic subunit alpha isoform (Homo sapiens), P42336 [C420R] (P42336 whole entry C420R, the tested form may be a part, canonical isoform): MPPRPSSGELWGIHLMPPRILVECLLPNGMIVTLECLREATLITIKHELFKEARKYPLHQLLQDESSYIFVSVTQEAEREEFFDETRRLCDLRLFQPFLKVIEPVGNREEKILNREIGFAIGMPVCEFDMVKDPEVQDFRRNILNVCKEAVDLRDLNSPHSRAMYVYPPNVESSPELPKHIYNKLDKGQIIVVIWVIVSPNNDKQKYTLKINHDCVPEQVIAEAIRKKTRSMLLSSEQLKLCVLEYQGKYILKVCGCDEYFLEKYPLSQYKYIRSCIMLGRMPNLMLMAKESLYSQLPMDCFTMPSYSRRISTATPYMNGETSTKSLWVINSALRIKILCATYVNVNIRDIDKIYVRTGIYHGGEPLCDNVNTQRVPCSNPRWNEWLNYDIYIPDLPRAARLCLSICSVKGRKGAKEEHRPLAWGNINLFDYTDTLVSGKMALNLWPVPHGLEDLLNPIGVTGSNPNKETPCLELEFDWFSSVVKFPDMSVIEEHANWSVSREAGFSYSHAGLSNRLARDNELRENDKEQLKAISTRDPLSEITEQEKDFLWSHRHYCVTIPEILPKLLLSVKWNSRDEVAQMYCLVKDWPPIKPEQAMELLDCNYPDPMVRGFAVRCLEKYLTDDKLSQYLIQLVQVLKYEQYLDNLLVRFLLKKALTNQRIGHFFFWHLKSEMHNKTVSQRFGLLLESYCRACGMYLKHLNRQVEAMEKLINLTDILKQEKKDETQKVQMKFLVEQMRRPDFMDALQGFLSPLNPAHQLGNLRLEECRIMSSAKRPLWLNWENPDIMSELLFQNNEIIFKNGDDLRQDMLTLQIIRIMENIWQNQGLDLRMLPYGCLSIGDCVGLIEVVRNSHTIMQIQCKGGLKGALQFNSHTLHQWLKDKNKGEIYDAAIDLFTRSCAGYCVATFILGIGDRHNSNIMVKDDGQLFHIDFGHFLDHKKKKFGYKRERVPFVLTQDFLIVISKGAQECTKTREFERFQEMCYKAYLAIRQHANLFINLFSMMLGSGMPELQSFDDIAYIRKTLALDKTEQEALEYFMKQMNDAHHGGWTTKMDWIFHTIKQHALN
Chain of Cyclin-dependent kinase 2 homolog (Plasmodium falciparum (isolate 3D7)) (P61075 whole entry): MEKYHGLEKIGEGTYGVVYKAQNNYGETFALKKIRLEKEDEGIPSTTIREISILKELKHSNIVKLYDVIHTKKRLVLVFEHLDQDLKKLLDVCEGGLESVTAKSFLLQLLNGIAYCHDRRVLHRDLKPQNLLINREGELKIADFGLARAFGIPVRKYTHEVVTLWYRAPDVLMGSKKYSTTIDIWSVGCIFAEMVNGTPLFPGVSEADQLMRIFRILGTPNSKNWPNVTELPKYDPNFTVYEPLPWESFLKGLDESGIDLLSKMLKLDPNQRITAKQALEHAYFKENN

CSc1cccnc1N1CCN(Cc2nc3ccccc3[nH]2)CC1 [A-769]
inactive: [1] 86% | [2] 97% | [3] 93% | [4] 80% | [5] 100% | [6] 74% | [7] 100% | [8] 100% | [9] 91% | [10] 100% | [11] 86% | [12] 100% | [13] 100% | [14] 99% | [15] 100% | [16] 77% | [17] 80% | [18] 100% | [19] 73% | [20] 92% | [21] 95% | [22] 100% | [23] 100% | [24] 100% | [25] 94% | [26] 99% | [27] 100% | [28] 100% | [29] 100% | [30] 100% | [31] 100% | [32] 100% | [33] 94% | [34] 100% | [35] 100% | [36] 100% | [37] 100% | [38] 100% | [39] 100% | [40] 87% | [41] 78% | [42] 98% | [43] 100% | [44] 82%

c1ccc(N2CCN(Cc3nc4ccccc4[nH]3)CC2)nc1 [ABT-724]
inactive: [1] 100% | [2] 84% | [3] 100% | [4] 90% | [5] 100% | [6] 59% | [7] 100% | [8] 100% | [9] 100% | [10] 100% | [11] 100% | [12] 95% | [13] 85% | [14] 100% | [15] 86% | [16] 100% | [17] 76% | [18] 95% | [19] 100% | [20] 100% | [21] 83% | [22] 97% | [23] 97% | [24] 98% | [25] 100% | [26] 100% | [27] 100% | [28] 95% | [29] 100% | [30] 100% | [31] 100% | [32] 100% | [33] 85% | [34] 100% | [35] 100% | [36] 100% | [37] 100% | [38] 100% | [39] 100% | [40] 100% | [41] 100% | [42] 100% | [43] 91% | [44] 100%
